Assay results: US8940516B2, “Method for the synthesis of chiral cyanohydrins via a hydroxynitrile lyase from brassicaceae” (Evocatal GmbH, priority 2006, dated 2015)
“Also recorded” adds a separate entry of the source. Like-named read-outs stand apart in the source and are kept apart here.

What was measured:
Type in all cases: biochemical
AtHNL [1] = biological target: T1, AtHNL (Arabidopsis thaliana, UniProt Q9LFT6)
T1 construct: made in house; host or cells: E. coli BL21(DE3), plasmid pAtHNL (pET28a, NcoI/XhoI)
T1 sequence (Q9LFT6 1-258): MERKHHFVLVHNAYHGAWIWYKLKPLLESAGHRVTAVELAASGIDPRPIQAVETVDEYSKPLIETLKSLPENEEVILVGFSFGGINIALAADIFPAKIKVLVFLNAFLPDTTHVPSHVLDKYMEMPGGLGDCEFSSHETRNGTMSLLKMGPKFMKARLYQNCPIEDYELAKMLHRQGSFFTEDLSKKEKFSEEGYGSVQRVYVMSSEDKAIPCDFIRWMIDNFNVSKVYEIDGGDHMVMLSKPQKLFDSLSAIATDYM

AtHNL [2] = biological target: T1, AtHNL; conditions: pH 5
[3] = Activity of AtHNL preparations from fed batch fermentation
[4] = Demonstration of stereoselectivity (chiral gas chromatography and cleavage test with enantiomerically pure benzaldehyde cyanohydrin)
[5] = HNL activity test of cloned and expressed Arabidopsis proteins resembling MeHNL; conditions: cloned, expressed heterologously in E. coli; listed as At5g10300
Source text: The Arabidopsis thaliana plant (mouse-ear cress) is a model organism (accessible genome, short generation period) and thus has been comprehensively investigated. The genome has been completely sequenced and recorded in sequence databases. Examples of such databases are, for example, the “Genbank” as a collection of all published sequences, or TAIR as a database restricted to a single organism (in this case Arabidopsis). Because of the great strides made in molecular biology, many new sequences are being input into the appropriate databases than can be individually assessed and described. Thus, until now genes which have been identified as true genes but which have not been further investigated have automatically been ascribed types by appropriate computer algorithms because of their similarities to known sequences. Whether the function stated in this description is true, however, must be individually ascertained for each protein. […] The increase in the extinction at 280 nm was monitored for 2 min. […] Self-degradation of the cyanohydrin was determined in a control sample without enzyme and subtracted from the values measured for the enzyme sample. […]

[6] = Point mutations in SEQ ID NO: 1 (AtHNL variants)
[7] = after Q-Sepharose, desalting and lyophilization

Molecule: CCCCCC=O [Hexanal]
- Transformation (%) (AtHNL [1]; pH 4): 98%

Molecule: C=CCc1ccccc1 [compound 17]
- Transformation (%) (AtHNL [1]): 97%
- ee (R) (%) (AtHNL [1]): 96%

Molecule: CC(=O)c1ccccc1 [compound 27]
- Transformation (%) (AtHNL [1]): 7%

Molecule: CC(=O)CCc1ccccc1 [compound 29]
- Transformation (%) (AtHNL [1]): 1%

Molecule: CCC/C=C/C=O [compound 22]
- Transformation (%) (AtHNL [1]): 53%

Molecule: O=C1CCCCC1 [compound 26]
- Transformation (%) (AtHNL [1]): 94%

Molecule: COc1ccc(C=O)cc1 [4-methoxybenzaldehyde]
- Transformation (%) (AtHNL [1]; pH 4): 22.6%

Molecule: CCC(O)C#N (stereo not shown) [Propionaldehyde cyanohydrin]
- Specify activity (U/mg), HCN-Test (see Ib above) (AtHNL [2]): <0.05 U/mg

Molecule: O=Cc1ccccc1 [Benzaldehyde]
- Transformation (%) (AtHNL [1]; pH 4): >99.9%

Molecule: CCC(C)=O [2-butanone]
- ee (R) (%) (AtHNL [1]): 0%
- Transformation (%) (AtHNL [1]; pH 4): >95%

Molecule: CC(=O)CCc1ccccc1 [Benzyl acetone]
- ee (R) (%) (AtHNL [1]): 40%
- Transformation (%) (AtHNL [1]; pH 4): 9%

Molecule: O=Cc1cccs1 [compound 19]
- Transformation (%) (AtHNL [1]): 68%

Molecule: CCCCC(C)=O [2-hexanone]
- ee (R) (%) (AtHNL [1]): 0%

Molecule: CC(=O)c1ccccc1F [compound 28]
- Transformation (%) (AtHNL [1]): 8%
- ee (R) (%) (AtHNL [1]): 95%

Molecule: O=Cc1cccc(Oc2ccccc2)c1 [3-phenoxybenzaldehyde]
- ee (R) (%) (AtHNL [1]): 78%
- Transformation (%) (AtHNL [1]; pH 4): 73%

Molecule: O=CCCc1ccccc1 [compound 18]
- Transformation (%) (AtHNL [1]): 99%
- ee (R) (%) (AtHNL [1]): 68%

Molecule: CCCCCC(C)=O [2-heptanone]
- ee (R) (%) (AtHNL [1]): 9%
- Transformation (%) (AtHNL [1]; pH 4): 9%

Molecule: CCCCCCCCC(C)=O [compound 25]
- Transformation (%) (AtHNL [1]): 2%

Molecule: CC(=O)CCC=C(C)C [compound 23]
- Transformation (%) (AtHNL [1]): 0%

Molecule: CCCCCCCC=O [Octanal]
- Transformation (%) (AtHNL [1]; pH 4): 89%

Molecule: O=Cc1ccc(Cl)cc1 [4-chlorobenzaldehyde]
- ee (R) (%) (AtHNL [1]): 95%
- Transformation (%) (AtHNL [1]; pH 4): 98%

Molecule: CCCCCCCCCC=O [compound 21]
- Transformation (%) (AtHNL [1]): 56%
- ee (R) (%) (AtHNL [1]): >95%

Molecule: O=CCc1ccccc1 [Phenylacetaldehyde]
- ee (R) (%) (AtHNL [1]): 71%
- Transformation (%) (AtHNL [1]; pH 4): 90%

Molecule: CCCCCCC(C)=O [2-octanone]
- Transformation (%) (AtHNL [1]; pH 4): 0%

Molecule: CCCC(C)=O [2-pentanone]
- ee (R) (%) (AtHNL [1]): 0%
- Transformation (%) (AtHNL [1]; pH 4): >95%

Molecule: CC(O)C#N (stereo not shown) [Acetaldehyde cyanohydrin]
- Specify activity (U/mg), HCN-Test (see Ib above) (AtHNL [2]): <0.05 U/mg

Molecule: CCCCC(C)=O [compound 24]
- Transformation (%) (AtHNL [1]): 48%
- ee (R) (%) (AtHNL [1]): 95%

Molecule: CCCCCCC=O [Heptanal]
- ee (R) (%) (AtHNL [1]): >80%
- Transformation (%) (AtHNL [1]; pH 4): >99.9%

Molecule: CCCCCC=O [compound 20]
- Transformation (%) (AtHNL [1]): 99%
- ee (R) (%) (AtHNL [1]): 98%

B1: AtHNL: hydroxynitrile lyase from Arabidopsis thaliana, polypeptide of the invention, SEQ ID NO: 1 (protein, listed as Arabidopsis thaliana)
chain: MERKHHFVLVHNAYHGAWIWYKLKPLLESAGHRVTAVELAASGIDPRPIQAVETVDEYSKPLIETLKSLPENEEVILVGFSFGGINIALAADIFPAKIKVLVFLNAFLPDTTHVPSHVLDKYMEMPGGLGDCEFSSHETRNGTMSLLKMGPKFMKARLYQNCPIEDYELAKMLHRQGSFFTEDLSKKEKFSEEGYGSVQRVYVMSSEDKAIPCDFIRWMIDNFNVSKVYEIDGGDHMVMLSKPQKLFDSLSAIATDYM
- activity per lyophilisate [3, 7]: 2.5 U/mg of lyophilisate
- specific activity [3, 7]: approximately 40 U/mg protein
- specific activity ([3]; unrefined extract): 13.3 U/mg
- volumetric activity ([3]; unrefined extract): approx 800 U/ml
- stereoselectivity [4]: Only the (R) enantiomer formed or was transformed
- HNL activity (Remarks/misc) [5]: high activity; also recorded: HNL activity (a poly-

B2: D208N: AtHNL (SEQ ID NO: 1) with point mutation D208N, catalytic triad residue exchanged (protein, listed as Arabidopsis thaliana)
chain: MERKHHFVLVHNAYHGAWIWYKLKPLLESAGHRVTAVELAASGIDPRPIQAVETVDEYSKPLIETLKSLPENEEVILVGFSFGGINIALAADIFPAKIKVLVFLNAFLPDTTHVPSHVLDKYMEMPGGLGDCEFSSHETRNGTMSLLKMGPKFMKARLYQNCPIEDYELAKMLHRQGSFFTEDLSKKEKFSEEGYGSVQRVYVMSSENKAIPCDFIRWMIDNFNVSKVYEIDGGDHMVMLSKPQKLFDSLSAIATDYM
- activity of the polypeptide after exchange of catalytic triad residues [6]: no longer exhibited any activity

B3: S81A: AtHNL (SEQ ID NO: 1) with point mutation S81A, catalytic triad residue exchanged (protein, listed as Arabidopsis thaliana)
chain: MERKHHFVLVHNAYHGAWIWYKLKPLLESAGHRVTAVELAASGIDPRPIQAVETVDEYSKPLIETLKSLPENEEVILVGFAFGGINIALAADIFPAKIKVLVFLNAFLPDTTHVPSHVLDKYMEMPGGLGDCEFSSHETRNGTMSLLKMGPKFMKARLYQNCPIEDYELAKMLHRQGSFFTEDLSKKEKFSEEGYGSVQRVYVMSSEDKAIPCDFIRWMIDNFNVSKVYEIDGGDHMVMLSKPQKLFDSLSAIATDYM
- activity of the polypeptide after exchange of catalytic triad residues [6]: no longer exhibited any activity

B4: H236F: AtHNL (SEQ ID NO: 1) with point mutation H236F, catalytic triad residue exchanged (protein, listed as Arabidopsis thaliana)
chain: MERKHHFVLVHNAYHGAWIWYKLKPLLESAGHRVTAVELAASGIDPRPIQAVETVDEYSKPLIETLKSLPENEEVILVGFSFGGINIALAADIFPAKIKVLVFLNAFLPDTTHVPSHVLDKYMEMPGGLGDCEFSSHETRNGTMSLLKMGPKFMKARLYQNCPIEDYELAKMLHRQGSFFTEDLSKKEKFSEEGYGSVQRVYVMSSEDKAIPCDFIRWMIDNFNVSKVYEIDGGDFMVMLSKPQKLFDSLSAIATDYM
- activity of the polypeptide after exchange of catalytic triad residues [6]: no longer exhibited any activity

B5: L129W: AtHNL (SEQ ID NO: 1) with leucine 129 exchanged for tryptophan (protein, listed as Arabidopsis thaliana)
chain: MERKHHFVLVHNAYHGAWIWYKLKPLLESAGHRVTAVELAASGIDPRPIQAVETVDEYSKPLIETLKSLPENEEVILVGFSFGGINIALAADIFPAKIKVLVFLNAFLPDTTHVPSHVLDKYMEMPGGWGDCEFSSHETRNGTMSLLKMGPKFMKARLYQNCPIEDYELAKMLHRQGSFFTEDLSKKEKFSEEGYGSVQRVYVMSSEDKAIPCDFIRWMIDNFNVSKVYEIDGGDHMVMLSKPQKLFDSLSAIATDYM
- effect of the point mutation on substrate spectrum / enantioselectivity [6]: reversal of enantioselectivity

B6: Y14C: AtHNL (SEQ ID NO: 1) with tyrosine 14 exchanged for cysteine (protein, listed as Arabidopsis thaliana)
chain: MERKHHFVLVHNACHGAWIWYKLKPLLESAGHRVTAVELAASGIDPRPIQAVETVDEYSKPLIETLKSLPENEEVILVGFSFGGINIALAADIFPAKIKVLVFLNAFLPDTTHVPSHVLDKYMEMPGGLGDCEFSSHETRNGTMSLLKMGPKFMKARLYQNCPIEDYELAKMLHRQGSFFTEDLSKKEKFSEEGYGSVQRVYVMSSEDKAIPCDFIRWMIDNFNVSKVYEIDGGDHMVMLSKPQKLFDSLSAIATDYM
- effect of the point mutation on substrate spectrum / enantioselectivity [6]: reversal of enantioselectivity

B7: N12T: AtHNL (SEQ ID NO: 1) with asparagine 12 exchanged for threonine, preferably as double mutation with Y14C (protein, listed as Arabidopsis thaliana)
chain: MERKHHFVLVHTAYHGAWIWYKLKPLLESAGHRVTAVELAASGIDPRPIQAVETVDEYSKPLIETLKSLPENEEVILVGFSFGGINIALAADIFPAKIKVLVFLNAFLPDTTHVPSHVLDKYMEMPGGLGDCEFSSHETRNGTMSLLKMGPKFMKARLYQNCPIEDYELAKMLHRQGSFFTEDLSKKEKFSEEGYGSVQRVYVMSSEDKAIPCDFIRWMIDNFNVSKVYEIDGGDHMVMLSKPQKLFDSLSAIATDYM
- effect of the point mutation on substrate spectrum / enantioselectivity [6]: broadening of substrate spectrum to ketones
